The text below walks through data of PMC2917201 (Molecular cell, 2010).

The experiment deals with T1, MuSK(cyto) (Rattus norvegicus, UniProt Q62838).
T1 sequence (Q62838 529-868): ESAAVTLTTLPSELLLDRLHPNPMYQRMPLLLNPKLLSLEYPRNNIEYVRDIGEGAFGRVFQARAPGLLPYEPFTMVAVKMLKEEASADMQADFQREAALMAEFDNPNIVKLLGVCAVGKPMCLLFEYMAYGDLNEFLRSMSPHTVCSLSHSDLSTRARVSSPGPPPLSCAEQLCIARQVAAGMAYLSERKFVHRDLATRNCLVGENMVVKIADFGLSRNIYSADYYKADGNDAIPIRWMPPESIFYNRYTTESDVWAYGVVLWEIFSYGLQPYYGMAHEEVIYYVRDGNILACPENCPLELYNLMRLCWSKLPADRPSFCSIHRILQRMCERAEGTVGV
The experiment in a line: autophosphorylation, anti-pTyr754 immunoblot. In kind it is biochemical. The settings on record: 5 mM ATP, 50 mM MgCl2, 25 mM Tris-HCl pH 7.5, 0.5 mM sodium vanadate, 10 mM TCEP, room temperature; MuSK alone, no Dok7.

For the compound `Nc1ncnc2c1ncn2[C@@H]1O[C@H](COP(=O)(O)OP(=O)(O)OP(=O)(O)O)[C@@H](O)[C@H]1O` [ATP], the “autophosphorylation, anti-pTyr754 immunoblot” value is recorded as “With MuSK alone, incubation with Mg-ATP results in a relatively slow rate of autophosphorylation”.
